# Experiments:
# [1] = salt formation results (physical form); type: physicochemical; conditions: Acid eq. added 0
# Experimental: The hydrochloride, hydrobromide, acetate, tartrate, fumarate, malate, oxalate and sulphate salts of N-(3-(4-(3-(diisobutylamino)propyl)piperazin-1-yl)propyl)-1H-benzo[d]imidazol-2-amine were prepared according to procedures similar to those described in the previous examples or standard salt formation methods well known in the art.
# [2] = long term stability (oxidation) in solid state; type: physicochemical; conditions: oxidation at the piperazine ring
structure (smiles),measurement,setting,value
"CC(C)CN(CCCN1CCN(CCCNc2nc3ccccc3[nH]2)CC1)CC(C)C [Free base, N-(3-(4-(3-(diisobutylamino)propyl)piperazin-1-yl)propyl)-1H-benzo[d]imidazol-2-amine]",Physical form,[1],Amorphous powder
same,long term stability,[2],long term stability issues

# Reference: patent US10772884B2, “Sulphate salts of N-(3-(4-(3-(diisobutylamino)propyl)piperazin-1-yl)propyl)-1H-benzo[d]imidazol-2-amine, preparation thereof and use of the same” (ALZPROTECT, priority 2012, dated 2020)
